{"source": "patent US20250250261A1", "about": "“NOVEL SUBSTITUTED FLUORINATED VINYL-N-PROPYL-PYRROLIDINE COMPOUNDS, PROCESSES FOR THEIR PREPARATION AND THERAPEUTIC USES THEREOF” (SANOFI, priority 2022, published 2025)", "data": [{"biological_target": "T1, ERα (Homo sapiens, UniProt P03372)", "T1 construct": "host or cells: MCF7", "T1 sequence (P03372 1-595)": "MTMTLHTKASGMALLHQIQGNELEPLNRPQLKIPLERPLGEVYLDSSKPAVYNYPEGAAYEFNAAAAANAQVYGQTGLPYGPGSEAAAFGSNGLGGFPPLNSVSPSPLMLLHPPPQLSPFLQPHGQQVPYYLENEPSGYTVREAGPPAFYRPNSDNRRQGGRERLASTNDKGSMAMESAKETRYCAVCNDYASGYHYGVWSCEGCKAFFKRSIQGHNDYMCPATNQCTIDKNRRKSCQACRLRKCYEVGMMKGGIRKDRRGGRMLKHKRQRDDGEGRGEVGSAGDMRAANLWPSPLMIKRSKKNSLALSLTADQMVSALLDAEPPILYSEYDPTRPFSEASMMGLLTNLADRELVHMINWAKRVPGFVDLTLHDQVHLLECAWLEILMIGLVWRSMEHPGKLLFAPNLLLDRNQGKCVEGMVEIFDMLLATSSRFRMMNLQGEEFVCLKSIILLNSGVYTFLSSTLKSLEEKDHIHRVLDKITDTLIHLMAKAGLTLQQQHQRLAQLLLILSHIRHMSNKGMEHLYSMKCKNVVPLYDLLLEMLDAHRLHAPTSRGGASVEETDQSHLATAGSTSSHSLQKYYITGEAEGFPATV", "assay": "Estrogen receptor degradation activity: breast cancer cell ERα in cell western assay (MCF7 cells)", "assay_type": "cell-based", "conditions": "4 hours, % of ERα levels decrease relative to fulvestrant (0.1 μM) and DMSO", "procedure": "Test: Estrogen Receptor Degradation Activity\nSaid test involves measuring the in vitro degradation activity of the compounds of the Table 1a.\nThe measurements of the degradation activities were made using a breast cancer cell ERα in cell western assay as described hereunder.\nMCF7 cells (ATCC) were seeded in 384 wells microplate (collagen coated) at a concentration of 10000 cells/30 μL per well in red phenol free MEM alpha medium (invitrogen) containing 5% charcoal dextran striped FBS. The following day, 9 points serial 1:5 dilution of each compound was added to the cells in 2.5 μL at final concentrations ranging from 0.3-0.0000018 μM (in table 2), or 0.1 μM for fulvestrant (using as positive control). At 4 hours post compound addition the cells were fixed by adding 25 μL of formalin (final concentration 5% formalin containing 0.1% triton) for 10 minutes at room temperature and then washed twice with PBS. Then, 50 μL of LI-COR blocking buffer containing 0.1% Triton was added to plate for 30 minutes at room temperature. LI-COR blocking buffer was removed and cells were incubated overnight at cold room with 50 μL anti-ER rabbit monoclonal antibody (Thermo scientific MA1-39540) diluted at 1:1000 in LI-COR blocking buffer containing 0.1% tween-20. Wells which were treated with blocking buffer but no antibody were used as background control. Wells were washed twice with PBS (0.1% tween-20) and incubated at 37° C. for 60 minutes in LI-COR (0.1% tween-20) containing goat anti-rabbit antibody Alexa 488 (1:1000) and Syto-64 a DNA dye (2 μM final concentration). Cells were then washed 3 times in PBS and scanned in ACUMEN explorer (TTP-Labtech). Integrated intensities in the green fluorescence and red fluorescence were measured to determine the levels of ERα and DNA respectively.\nThe degradation activity with respect to estrogen receptors in this test is given by the concentration which degrades 50% of the estrogen receptor (or IC50) in nM.\nThe % of ERα levels decrease were determined as follows: % inhibition=100*(1−(sample−fulvestrant:DMSO−fulvestrant)).", "units": {"% Degradation At 0.3 μM": "%"}, "values": [{"compound": "Oc1ccc2c(c1)SCCC(c1ccc(Cl)cc1Cl)=C2c1ccc(/C=C2/CCN(CCCF)C2)cc1", "note": "[Compound 30, (Z)-4-(2,4-dichlorophenyl)-5-(4-((1-(3-fluoropropyl)pyrrolidin-3-ylidene)methyl)phenyl)-2,3-dihydrobenzo[b]thiepin-8-ol]", "% Degradation At 0.3 μM": 90}, {"compound": "Cc1cc(F)ccc1C1=C(c2ccc(/C=C3/CCN(CCCF)C3)cc2)c2ccc(C(=O)O)cc2CCC1", "note": "[Compound 6, (Z)-8-(4-fluoro-2-methylphenyl)-9-(4-((1-(3-fluoropropyl)pyrrolidin-3-ylidene)methyl)phenyl)-6,7-dihydro-5H-benzo[7]annulene-3-carboxylic acid]", "% Degradation At 0.3 μM": 96}, {"compound": "Cc1cccc(C2=C(c3ccc(/C=C4/CCN(CCCF)C4)cc3)c3ccc(C(=O)O)cc3CCC2)c1C(F)(F)F", "note": "[Compound 11, (Z)-9-(4-((1-(3-fluoropropyl)pyrrolidin-3-ylidene)methyl)phenyl)-8-(3-methyl-2-(trifluoromethyl)phenyl)-6,7-dihydro-5H-benzo[7]annulene-3-carboxylic acid]", "% Degradation At 0.3 μM": 93}, {"compound": "Cc1c(Cl)cccc1C1=C(c2ccc(/C=C3/CCN(CCCF)C3)cc2)c2ccc(C(=O)O)cc2CCC1", "note": "[Compound 10, (Z)-8-(3-chloro-2-methylphenyl)-9-(4-((1-(3-fluoropropyl)pyrrolidin-3-ylidene)methyl)phenyl)-6,7-dihydro-5H-benzo[7]annulene-3-carboxylic acid]", "% Degradation At 0.3 μM": 92}, {"compound": "Cc1c(C2=C(c3ccc(/C=C4/CCN(CCCF)C4)cc3)c3ccc(C(=O)O)cc3CCC2)cccc1C(F)(F)F", "note": "[Compound 14, (Z)-9-(4-((1-(3-fluoropropyl)pyrrolidin-3-ylidene)methyl)phenyl)-8-(2-methyl-3-(trifluoromethyl)phenyl)-6,7-dihydro-5H-benzo[7]annulene-3-carboxylic acid]", "% Degradation At 0.3 μM": 92}, {"compound": "Cl.Oc1ccc2c(c1)CCCC(c1ccc(Cl)cc1Cl)=C2c1ccc(/C=C2/CCN(CCCF)C2)cc1", "note": "[Compound 16, (Z)-8-(2,4-dichlorophenyl)-9-(4-((1-(3-fluoropropyl)pyrrolidin-3-ylidene)methyl)phenyl)-6,7-dihydro-5H-benzo[7]annulen-3-ol hydrochloride]", "% Degradation At 0.3 μM": 76}, {"compound": "O=C(O)c1ccc2c(c1)CCCC(c1ccc(Cl)cc1Cl)=C2c1ccc(C=C2CCN(CCC(F)F)C2)cc1", "note": "[Compound 4, (Z)-8-(2,4-dichlorophenyl)-9-(4-((1-(3,3-difluoropropyl)pyrrolidin-3-ylidene)methyl)phenyl)-6,7-dihydro-5H-benzo[7]annulene-3-carboxylic acid]", "% Degradation At 0.3 μM": 73}, {"compound": "O=C(O)c1ccc2c(c1)CCCC(c1ccc(Cl)cc1Cl)=C2c1ccc(/C=C2/CCN(CCCF)C2)c(F)c1", "note": "[Compound 23, (Z)-8-(2,4-dichlorophenyl)-9-(3-fluoro-4-((1-(3-fluoropropyl)pyrrolidin-3-ylidene)methyl)phenyl)-6,7-dihydro-5H-benzo[7]annulene-3-carboxylic acid]", "% Degradation At 0.3 μM": 96}, {"compound": "O=C(O)c1ccc2c(c1)CCCC(c1ccc(Cl)cc1)=C2c1ccc(/C=C2/CCN(CCCF)C2)cc1", "note": "[Compound 28, (Z)-8-(4-chlorophenyl)-9-(4-((1-(3-fluoropropyl)pyrrolidin-3-ylidene)methyl)phenyl)-6,7-dihydro-5H-benzo[7]annulene-3-carboxylic acid]", "% Degradation At 0.3 μM": 93}]}]}
